In patent US20070207989A1, “DITERPENE DERIVATIVES FOR THE TREATMENT OF CARDIOVASCULAR, CANCER AND INFLAMMATORY DISEASES” (SaviPu Pharmaceuticals, priority 2006, published 2007):

Legend:
endothelin receptor = conditions: cited from earlier work
carcinoma cell lines = conditions: four cell lines; cited from earlier work
ETA receptor = biological target: T1, ETA receptor (Homo sapiens, UniProt P25101); conditions: cited from earlier work
T1 sequence (P25101 21-427): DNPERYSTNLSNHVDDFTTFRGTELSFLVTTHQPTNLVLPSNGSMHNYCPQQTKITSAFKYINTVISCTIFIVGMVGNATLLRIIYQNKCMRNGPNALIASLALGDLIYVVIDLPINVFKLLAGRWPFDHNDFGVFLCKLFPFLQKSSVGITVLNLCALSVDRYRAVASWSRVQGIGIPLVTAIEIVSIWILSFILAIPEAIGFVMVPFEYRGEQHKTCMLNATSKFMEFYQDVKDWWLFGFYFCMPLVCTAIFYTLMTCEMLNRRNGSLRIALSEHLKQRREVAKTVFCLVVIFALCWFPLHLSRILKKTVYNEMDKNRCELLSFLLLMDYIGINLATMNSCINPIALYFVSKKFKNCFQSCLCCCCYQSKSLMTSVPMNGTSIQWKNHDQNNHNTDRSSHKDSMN

ETB receptor = biological target: T2, ETB receptor (Homo sapiens, UniProt P24530); conditions: cited from earlier work
T2 sequence (P24530 27-442): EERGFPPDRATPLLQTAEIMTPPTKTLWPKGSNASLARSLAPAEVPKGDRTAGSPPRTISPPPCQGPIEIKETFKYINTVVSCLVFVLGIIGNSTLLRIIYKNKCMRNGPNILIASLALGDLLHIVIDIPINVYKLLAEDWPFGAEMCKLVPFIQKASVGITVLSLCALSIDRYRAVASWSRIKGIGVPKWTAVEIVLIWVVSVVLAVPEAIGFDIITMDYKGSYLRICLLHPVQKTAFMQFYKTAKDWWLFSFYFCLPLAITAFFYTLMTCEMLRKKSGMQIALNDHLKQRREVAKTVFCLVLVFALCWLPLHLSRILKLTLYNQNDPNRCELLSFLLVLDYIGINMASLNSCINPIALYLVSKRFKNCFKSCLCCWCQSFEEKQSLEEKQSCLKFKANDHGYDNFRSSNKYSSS

NF-κB [1] = conditions: cited from earlier work
[2] = biological target: T3, endothelin receptor A (ETA) (Homo sapiens, UniProt P25101); test: inhibition of endothelin receptor A (ETA)
T3 sequence (P25101 21-427): T1 sequence (P25101 21-427)

tumor cell lines = test: inhibition of tumor cell lines; assay type: cell-based
NF-κB [3] = test: inhibition of NF-κB / NF-κB binding to κB consensus DNA
human cancer cell lines = conditions: cited from earlier work

SMILES: COc1cccc(Oc2c(NS(=O)(=O)c3ccc(C(C)(C)C)cc3)ncnc2OCCO)c1 [Ro-46-2005]
- endothelin receptor antagonist activity / binding (in words) (endothelin receptor): orally active non-peptidic antagonist

SMILES: Cc1coc2c1C(=O)C(=O)c1c-2ccc2c(C)cccc12 [tanshinone 17]
- potency against carcinoma cell lines (in words) (carcinoma cell lines): lack significant activity

SMILES: Cc1coc2c1C(=O)C(=O)c1c-2ccc2c1CCCC2(C)CO (centres unmarked) [compound 11, tanshinone IIB]
- potency against carcinoma cell lines (in words) (carcinoma cell lines): very little activity

SMILES: Cc1noc(NS(=O)(=O)c2cccc3c(N(C)C)cccc23)c1C [BMS-1 82874]
- endothelin receptor antagonist activity / binding (in words) (endothelin receptor): active

SMILES: CCCOc1ccc2c(c1)[C@@H](c1ccc(OC)cc1OCC(=O)O)[C@H](C(=O)O)[C@H]2c1ccc2c(c1)OCO2 [SB-209670]
- affinity for ETA receptor (concentration range in words) (ETA receptor): subnanomolar
- affinity for ETB receptor (concentration range in words) (ETB receptor): nanomolar

SMILES: Cc1coc2c1C(=O)C(=O)c1c-2ccc2c1CCCC2(C)C [compound 8, tanshinone IIA]
- blocking of NFκB binding to κB consensus DNA (NF-κB [1]): block NFκB from binding to κB consensus DNA
- inhibition of endothelin receptor A (ETA) [2]: modest inhibition
- inhibition of tumor cell lines (tumor cell lines): modest inhibition
- potency against carcinoma cell lines (in words) (carcinoma cell lines): lack significant activity
- inhibition of NF-κB (NF-κB [3]): modest inhibition

SMILES: C=C1CCCc2c1ccc1c2C(=O)C(=O)c2c(C)coc2-1 [compound 9, methylene tanshinquinone]
- potency against carcinoma cell lines (in words) (carcinoma cell lines): more potent than any of the tanshindiols

SMILES: COC(=O)[C@@]1(C)CCCc2c1ccc1c2C(=O)C(=O)c2c(C)coc2-1 [compound 10, methyl tanshinonate]
- potency against carcinoma cell lines (in words) (carcinoma cell lines): equally potent as the tanshindiols

SMILES: COc1cc(OC)nc(O[C@H](C(=O)O)C(OC)(c2ccccc2)c2ccccc2)n1 [darusentan]
- endothelin receptor antagonist activity / binding (in words) (endothelin receptor): effective endothelin receptor antagonists

SMILES: Cc1cccc2c1ccc1c3occ(C)c3c(=O)oc21 [compound 20, neo-tanshinlactone]
- potency relative to tamoxifen citrate (human cancer cell lines; breast cancer, in some cases): ten times more potent
- selectivity relative to tamoxifen citrate (human cancer cell lines; breast cancer, in some cases): twenty times more selective
- effectiveness against human cancer cell lines (human cancer cell lines; several human cancer cell lines, particularly breast cancer): very effective
